Experimental data: article PMC9946977, “Identification of linderalactone as a natural inhibitor of SHP2 to ameliorate CCl4-induced liver fibrosis” (Frontiers in Pharmacology, 2023)

Columns and labels:
SHP2 PTP domain = biological target: T1, SHP2 PTP domain (Homo sapiens, UniProt Q06124); assay: SHP2 inhibition assay (DiFMUP) with SHP2-PTP; HTS and dose-response; format: biochemical
T1 construct: Human SHP2 PTP domain (A237–I529) expression constructs; His-tag; made in house; host or cells: E. coli BL21 (DE3)
T1 sequence (Q06124 237-529): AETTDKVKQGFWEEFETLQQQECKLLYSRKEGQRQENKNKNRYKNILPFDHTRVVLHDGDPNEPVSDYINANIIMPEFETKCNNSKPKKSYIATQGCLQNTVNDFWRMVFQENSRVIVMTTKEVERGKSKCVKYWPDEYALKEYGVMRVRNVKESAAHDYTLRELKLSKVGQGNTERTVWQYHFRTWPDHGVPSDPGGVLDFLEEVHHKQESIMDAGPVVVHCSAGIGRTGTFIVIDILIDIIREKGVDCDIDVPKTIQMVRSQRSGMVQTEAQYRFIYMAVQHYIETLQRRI
Method: Human SHP2 PTP domain (A237–I529) expression constructs were engineered by cloning PTPN11 (NP_002825.3) into the pET30 plasmid with a His-tag to support further protein purification. The K366A/Q510A double mutation was introduced into the wild-type template using a site-directed mutagenesis kit (E0554S; New England Biolabs). The expression constructs were sequenced and transformed into BL21 (DE3)-competent cells. E. coli cells were grown at 37°C in an LB culture medium in the presence of […] kanamycin until the OD600 reached 1.0. The medium was then cooled to 18°C and 1 mM isopropyl ß-D-1-thiogalactopyranoside (IPTG) was added to induce protein expression overnight.
A surrogate phosphatase substrate, 6,8-difluoro-4-methylumbelliferyl phosphate (DiFMUP, Thermo Fisher, #D22065), was used to monitor the catalytic activity of SHP2 in a prompt fluorescence assay format. Specifically, the DiFMUP phosphatase assay was performed at 20°C in a 384-well Griener CELLSTAR black polystyrene plate in the buffer condition of 60 mM HEPES (pH7.5), 75 mM NaCl, 75 mM KCl, 1 mM EDTA, 0.05% Tween-20, 5 mM dithiothreitol (DTT). The final reaction volume was 25 μL. NP compound libraries were obtained from TargetMol at a stock concentration of 10 mM, dissolved in DMSO. The purity of the active compound LIN used in this study is 96.27% as tested by HPLC analysis. The HPLC traces is shown in Supporting Information. We co-incubated 0.5 nM of SHP2-PTP enzyme with tested NPs for 30 min at 20°C, followed by the addition of DiFMUP into the reaction. After 30 min, 5 μL of bpV(phen) solution was added to quench the dephosphorylation reaction. The signals were read on a plate reader (SpectraMax iD5, Molecular Devices). The excitation and emission wavelengths were 340 and 450 nm, respectively. The inhibitor dose-response curves were evaluated using a normalised IC50 regression curve fitting with control-based normalisation. For the full-length SHP2 inhibition assay, 0.5 μM of a bisphosphorylated pIRS-1 peptide (ChinaPeptides Ltd. Shanghai) was added for partial SHP2 activation. […]

full-length SHP2 = biological target: T2, full-length SHP2 (Homo sapiens, UniProt Q06124); assay: full-length SHP2 inhibition assay (DiFMUP, pIRS-1 activated); format: biochemical; settings: activating peptide p-IRS-1 supplemented; read-out: IC50 on full length SHP2 (SHP2-FL)
T2 construct: used for the expression and purification of the full-length SHP2; made in house; host or cells: E. coli (similar protocol as for SHP2-PTP)
T2 sequence (Q06124 1-593): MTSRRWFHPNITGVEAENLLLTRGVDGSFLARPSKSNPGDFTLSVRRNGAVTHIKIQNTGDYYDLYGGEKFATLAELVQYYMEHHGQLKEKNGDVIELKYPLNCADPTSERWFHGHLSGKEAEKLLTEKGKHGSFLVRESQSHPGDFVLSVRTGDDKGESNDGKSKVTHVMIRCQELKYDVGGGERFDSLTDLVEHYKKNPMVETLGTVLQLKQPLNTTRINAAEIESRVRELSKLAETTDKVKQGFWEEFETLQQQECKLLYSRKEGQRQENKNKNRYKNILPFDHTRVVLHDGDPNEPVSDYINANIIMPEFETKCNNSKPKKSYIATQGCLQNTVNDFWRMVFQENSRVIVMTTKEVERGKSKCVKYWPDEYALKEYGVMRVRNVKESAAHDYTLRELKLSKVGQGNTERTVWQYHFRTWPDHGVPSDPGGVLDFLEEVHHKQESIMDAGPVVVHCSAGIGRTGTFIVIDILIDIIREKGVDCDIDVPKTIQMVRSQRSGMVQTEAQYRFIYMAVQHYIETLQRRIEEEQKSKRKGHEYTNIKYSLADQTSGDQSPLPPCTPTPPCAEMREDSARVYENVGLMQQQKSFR
Method: Cell pellets were collected and suspended in a buffer of 50 mM Tris-HCl (Ph = 8.5), 150 mM NaCl supplemented with 10% glycerol, and lysed by homogeniser (JN-BIO, China). After centrifugation, the collected supernatants were diluted with a Tris-HCl buffer (pH = 8.5) containing 50 mM imidazole and 150 mM NaCl and then loaded onto a Ni-NTA column (#88221, Thermo). The bound SHP2 protein was eluted with a buffer containing 150 and 300 mM imidazole. The pooled protein was loaded onto a HiTrap Q column after dilution in 25 mM Tris-HCl buffer. After elution using a linear gradient of NaCl (0–0.5 M), peak fractions containing the SHP2 protein were concentrated and applied to a gel filtration Superdex 200 column (GE Healthcare). Purified SHP2-PTP proteins were flash-frozen and stored. Similar expression and purification protocols were used for the expression and purification of the full-length SHP2 and SHP2-PTP ^K366A/Q510A double mutants.
A surrogate phosphatase substrate, 6,8-difluoro-4-methylumbelliferyl phosphate (DiFMUP, Thermo Fisher, #D22065), was used to monitor the catalytic activity of SHP2 in a prompt fluorescence assay format. […] The signals were read on a plate reader (SpectraMax iD5, Molecular Devices). […] The inhibitor dose-response curves were evaluated using a normalised IC50 regression curve fitting with control-based normalisation. […]

For `C/C1=C\CCC2=C[C@@H](OC2=O)c2c(C)coc2C1` [LIN, linderalactone], the IC50 (SHP2 PTP domain; 0.5 nM SHP2-PTP, DiFMUP substrate, 30 min co-incubation at 20°C, read-out: IC50 against the SHP2 PTP domain) was 1870 ± 850 nM, the “inhibitory activity in verification experiment of initial hits” value (SHP2 PTP domain; dose-response confirmation of HTS hits) was “best inhibitory activity among the screened hits” and the IC50 (full-length SHP2) was 1980 nM.
